Source: US11390625B2, “Aryl-phosphorus-oxygen compound as EGFR kinase inhibitor” (Chia Tai Tianqing Pharmaceutical Group Co., Ltd., priority 2017, dated 2022)

What was measured:
PC-9 (Δ19del) xenograft = test: In vivo pharmacodynamics study (2): PC-9 (Δ19del) subcutaneously transplanted tumor in mouse; details: 50 mg/kg (days 0-9); for Tumor volume Day 0 / Tumor volume Day 2 / Tumor volume Day 6 / Tumor volume Day 9 / Tumor volume Day 13 / Tumor volume Day 16 / Tumor volume Day 20 / Tumor volume Day 23: 25 mg/kg (days 10-21) oral once a day
Experimental: 1. Cell culture: lung cancer PC-9 cells were monolayer cultured in vitro, culture conditions: RPMI-1640 (cell culture medium) plus 10% fetal bovine serum, 100 U/mL penicillin and 100 μg/mL streptomycin, culture in a 5% CO2 incubator at 37° C. The cells were conventionally digested with trypsin-EDTA twice a week for passage. When the cell saturation was 80%-90%, and the number reached the requirements, the cells were collected and counted. The density was 5×10^6 cells.
2. Cell inoculation: 0.2 mL (containing 5×10^6 cells) of PC-9 cell suspension (PBS: Matrigel=1:1) was subcutaneously inoculated into the right back of each mouse, with a total of 64 mice. On Day 7 after inoculation, when the average tumor volume measured reached 169 mm^3, the animals were randomly hierarchically grouped based on tumor volume and animal weight, and started to administrate each group. PBS was a phosphate buffer solution, and Matrigel was a matrix.
3. Administration: dosage: Days 0-9: 50 mg/kg; Days 10-21: 25 mg/kg; oral administration; administration frequency: once a day×3 weeks.
Tumor Measurement and Experimental Indicators
Tumor diameter was measured twice a week with a vernier caliper.
The antitumor effect of the compound was evaluated by TGI (%).
The relative tumor volume (RTV) was calculated according to the results of tumor measurement. The calculation formula was RTV=Vt/V0, wherein V0 was the tumor volume measured during group administration (i.e., DO), and Vt was the tumor volume of the corresponding mice measured at a certain time. The data on the same day were taken for TRTV and CRTV.
TGI (%) reflected tumor growth inhibition rate.
After the end of the experiments, the tumor weight would be measured and the TGI (%) was calculated.

EGFR (WT) = EGFR (WT) (Homo sapiens (Human), UniProt P00533); test: Enzyme activity experiment (2): EGFR WT enzyme inhibition; assay type: biochemical
Experimental: (§1) 1. Gradient Dilution of the Compound:
(§2) The dilution and transfer of the compounds were completed by Echo by Labcyte Inc., with a three-fold concentration gradient, a total of 11 dose points, and 100 nL of the compounds per well. The maximum concentration of the test compounds in the kinase reaction solutions was 1000 nM. The maximum concentration of the reference compound (Crizotinib & AP26113) in the kinase reaction solution was 1000 nM. The maximum concentration of the reference compound (AZD9291) in the kinase reaction solution was 300 nM.
(§3) The plate was centrifuged at a speed of 1000 rpm for 60 seconds. The test plate was incubated at 23° C. for 15 minutes.
(§4) (3) The test plate was film sealed and incubated at 23° C. for 90 minutes.
(§5) (4) The test plate was added with 2× detection solution (4 nM TK antibody and 125 nM XL665), 10 μL per well, and centrifuged at a speed of 1000 rpm for 60 seconds, and film sealed, which was incubated at 23° C. for 60 minutes.
(§6) (5) The plate was read on the Multi-Mark Detector Envision.

[1] = molecular target: EGFR (Δ19del/T790M/C797S) (Homo sapiens, UniProt P00533, C797S/T790M, form not given); test: Enzyme activity experiment (1): EGFR (Δ19del/T790M/C797S) enzyme inhibition; assay type: biochemical; details: read-out: EGFR (Δ19del/T790M/C797S) IC50
Experimental: 1) 10 μL of the compounds to be tested and reference compounds diluted to 10 mM were taken into an Echo LDV plate, which were diluted according to the compound profile with Echo.
1) 1×enzyme reaction buffer was prepared: 1× enzyme buffer, 5 mM MgCl2, 1 mM DTT (dithiothreitol), water.
2) A mixed solution of 10 nM enzyme (final concentration of 5 nM) and 2 μM substrate (final concentration of 1 μM) and a solution containing the substrate alone were prepared with the diluted enzyme reaction buffer.
3) 5 μL of the substrate was added into A1-H1, J24-P24 (the number of the well position), and 5 μL of the mixture of the enzyme and substrate was added into the remaining wells.
4) Centrifugation was performed at 1000 rpm at 23° C. for 30 s.
5) Incubation was performed at 23° C. for 15 min.
7) Centrifugation was performed at 1000 rpm at 23° C. for 30 s.
8) Incubation was performed at 23° C. for 60 min.
9) 10 μL of 250 nM TK Antibody-Crypate (a final concentration of 125 nM) and 1×D2 (a final concentration ½ time) prepared with Detection buffer were added.
10) Centrifugation was performed at 1000 rpm at 23° C. for 30 s.
11) Incubation was performed at 23° C. for 60 min.
12) The data was read with Envision, and the ratio was calculated to obtain the IC50 of the compound for inhibiting the enzyme activity.

EGFR (C797S/T790M/L858R) = EGFR (C797S/T790M/L858R) (Homo sapiens (Human), UniProt P00533, C797S/L858R/T790M); test: Enzyme activity experiment (2): EGFR (C797S/T790M/L858R) enzyme inhibition; assay type: biochemical
Experimental: as §1, §2, §3, §4, §5, §6

Sequence of EGFR (WT) (P00533 25-1210): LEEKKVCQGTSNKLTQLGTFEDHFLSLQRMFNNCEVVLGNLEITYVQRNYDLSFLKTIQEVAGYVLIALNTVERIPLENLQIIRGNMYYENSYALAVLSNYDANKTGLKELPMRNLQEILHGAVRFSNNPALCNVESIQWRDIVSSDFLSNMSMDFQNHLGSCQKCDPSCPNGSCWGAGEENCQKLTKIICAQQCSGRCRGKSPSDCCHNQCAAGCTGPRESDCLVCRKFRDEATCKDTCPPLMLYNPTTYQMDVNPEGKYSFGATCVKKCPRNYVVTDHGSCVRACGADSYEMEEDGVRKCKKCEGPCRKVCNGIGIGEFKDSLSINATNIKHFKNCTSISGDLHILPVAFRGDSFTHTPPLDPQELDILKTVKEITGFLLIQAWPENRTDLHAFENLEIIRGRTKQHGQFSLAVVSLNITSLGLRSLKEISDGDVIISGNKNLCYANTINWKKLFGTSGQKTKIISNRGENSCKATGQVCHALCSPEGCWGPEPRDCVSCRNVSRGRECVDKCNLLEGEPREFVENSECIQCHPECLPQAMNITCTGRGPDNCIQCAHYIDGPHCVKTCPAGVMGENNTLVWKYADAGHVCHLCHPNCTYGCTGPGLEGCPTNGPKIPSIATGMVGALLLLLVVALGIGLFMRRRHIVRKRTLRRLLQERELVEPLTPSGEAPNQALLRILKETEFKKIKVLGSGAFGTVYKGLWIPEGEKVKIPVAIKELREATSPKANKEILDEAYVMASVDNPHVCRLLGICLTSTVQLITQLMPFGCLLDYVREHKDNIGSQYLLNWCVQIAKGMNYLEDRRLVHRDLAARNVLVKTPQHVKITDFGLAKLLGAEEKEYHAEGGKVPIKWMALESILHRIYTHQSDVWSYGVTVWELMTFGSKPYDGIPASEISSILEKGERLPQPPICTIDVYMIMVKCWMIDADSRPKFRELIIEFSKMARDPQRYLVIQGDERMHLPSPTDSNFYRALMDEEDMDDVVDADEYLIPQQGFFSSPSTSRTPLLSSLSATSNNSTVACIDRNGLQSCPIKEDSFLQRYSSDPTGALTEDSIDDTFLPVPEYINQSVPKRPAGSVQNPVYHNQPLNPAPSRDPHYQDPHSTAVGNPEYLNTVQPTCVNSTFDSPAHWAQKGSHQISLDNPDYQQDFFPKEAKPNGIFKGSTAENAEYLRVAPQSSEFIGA
Sequence of EGFR (C797S/T790M/L858R) (P00533 25-1210 T790M/C797S/L858R): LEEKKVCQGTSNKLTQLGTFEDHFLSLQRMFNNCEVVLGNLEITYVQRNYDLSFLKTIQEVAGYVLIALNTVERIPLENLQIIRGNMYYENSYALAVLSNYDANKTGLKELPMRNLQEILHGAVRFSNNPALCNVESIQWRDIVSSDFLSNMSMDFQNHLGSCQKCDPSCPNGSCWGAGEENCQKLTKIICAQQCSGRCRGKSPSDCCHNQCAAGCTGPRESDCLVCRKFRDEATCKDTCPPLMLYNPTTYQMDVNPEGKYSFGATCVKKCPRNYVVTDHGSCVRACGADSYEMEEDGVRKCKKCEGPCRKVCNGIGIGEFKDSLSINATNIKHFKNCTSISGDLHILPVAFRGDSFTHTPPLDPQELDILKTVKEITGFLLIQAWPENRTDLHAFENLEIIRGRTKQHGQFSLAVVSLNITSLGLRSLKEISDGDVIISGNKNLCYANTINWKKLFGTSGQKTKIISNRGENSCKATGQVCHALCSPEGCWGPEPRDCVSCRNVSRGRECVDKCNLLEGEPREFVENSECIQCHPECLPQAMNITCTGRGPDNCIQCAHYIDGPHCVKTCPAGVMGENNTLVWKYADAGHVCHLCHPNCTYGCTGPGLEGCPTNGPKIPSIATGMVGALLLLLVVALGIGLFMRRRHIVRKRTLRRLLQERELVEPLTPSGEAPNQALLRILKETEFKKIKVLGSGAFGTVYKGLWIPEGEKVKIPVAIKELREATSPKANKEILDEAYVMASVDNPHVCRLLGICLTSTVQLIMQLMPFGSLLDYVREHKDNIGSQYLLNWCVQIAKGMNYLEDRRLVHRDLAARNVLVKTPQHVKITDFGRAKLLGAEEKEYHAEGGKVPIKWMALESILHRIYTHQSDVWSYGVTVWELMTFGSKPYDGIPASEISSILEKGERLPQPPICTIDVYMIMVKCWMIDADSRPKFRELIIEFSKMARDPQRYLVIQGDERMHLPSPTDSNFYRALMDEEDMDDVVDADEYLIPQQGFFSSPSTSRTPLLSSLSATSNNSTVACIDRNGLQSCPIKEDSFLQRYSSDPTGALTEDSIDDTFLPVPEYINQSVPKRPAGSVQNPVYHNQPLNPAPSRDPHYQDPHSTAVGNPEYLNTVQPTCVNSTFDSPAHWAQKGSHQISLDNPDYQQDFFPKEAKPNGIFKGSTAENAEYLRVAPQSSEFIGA
Sequence of EGFR (Δ19del/T790M/C797S) (P00533 25-1210 T790M/C797S limits assumed, form open): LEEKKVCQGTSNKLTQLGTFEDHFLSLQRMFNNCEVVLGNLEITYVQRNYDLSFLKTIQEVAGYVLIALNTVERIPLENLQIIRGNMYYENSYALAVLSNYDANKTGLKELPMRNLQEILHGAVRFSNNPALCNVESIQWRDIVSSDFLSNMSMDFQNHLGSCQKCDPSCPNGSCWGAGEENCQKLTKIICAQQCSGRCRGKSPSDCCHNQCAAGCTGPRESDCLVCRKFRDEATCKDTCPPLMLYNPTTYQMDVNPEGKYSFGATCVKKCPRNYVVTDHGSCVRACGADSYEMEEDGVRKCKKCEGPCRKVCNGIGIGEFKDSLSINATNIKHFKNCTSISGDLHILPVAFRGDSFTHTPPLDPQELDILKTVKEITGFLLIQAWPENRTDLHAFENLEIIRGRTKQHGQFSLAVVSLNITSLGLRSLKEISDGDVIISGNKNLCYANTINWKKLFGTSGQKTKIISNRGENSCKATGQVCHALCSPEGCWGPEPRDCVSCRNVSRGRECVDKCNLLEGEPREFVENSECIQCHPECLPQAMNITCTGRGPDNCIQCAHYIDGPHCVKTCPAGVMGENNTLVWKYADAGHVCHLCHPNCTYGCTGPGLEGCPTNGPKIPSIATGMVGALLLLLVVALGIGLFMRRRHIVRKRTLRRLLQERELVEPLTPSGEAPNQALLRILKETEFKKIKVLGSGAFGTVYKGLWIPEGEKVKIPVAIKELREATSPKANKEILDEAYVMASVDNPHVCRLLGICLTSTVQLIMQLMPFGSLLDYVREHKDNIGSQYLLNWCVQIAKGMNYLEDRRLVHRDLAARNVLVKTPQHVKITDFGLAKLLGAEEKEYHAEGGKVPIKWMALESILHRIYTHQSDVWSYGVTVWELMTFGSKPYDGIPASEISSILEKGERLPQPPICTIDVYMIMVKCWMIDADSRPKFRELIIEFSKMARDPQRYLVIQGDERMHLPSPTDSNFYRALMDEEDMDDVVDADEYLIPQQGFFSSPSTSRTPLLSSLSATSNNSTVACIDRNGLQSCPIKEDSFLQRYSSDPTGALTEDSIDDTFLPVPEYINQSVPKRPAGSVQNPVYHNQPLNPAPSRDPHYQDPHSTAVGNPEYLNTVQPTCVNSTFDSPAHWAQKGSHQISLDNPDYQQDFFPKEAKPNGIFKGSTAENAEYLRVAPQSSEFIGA

COc1cc(N2CCC(N3CCN(C)CC3)CC2)c(C)cc1Nc1ncc(Br)c(Nc2ccc3nccnc3c2P(C)(C)=O)n1 [Compound 34]
Tumor volume Day 0 (PC-9 (Δ19del) xenograft): 185 mm^3
Tumor volume Day 2 (PC-9 (Δ19del) xenograft): 198 mm^3
Tumor volume Day 6 (PC-9 (Δ19del) xenograft): 92 mm^3
Tumor volume Day 9 (PC-9 (Δ19del) xenograft): 75 mm^3
Tumor volume Day 13 (PC-9 (Δ19del) xenograft): 40 mm^3
Tumor volume Day 16 (PC-9 (Δ19del) xenograft): 45 mm^3
Tumor volume Day 20 (PC-9 (Δ19del) xenograft): 76 mm^3
Tumor volume Day 23 (PC-9 (Δ19del) xenograft): 111 mm^3
TGI (PC-9 (Δ19del) xenograft; day 23, 25 mg/kg (days 10-21) oral): 100%

CCc1cc(Nc2ncc(Br)c(Nc3ccc4nccnc4c3P(C)(C)=O)n2)c(OC)cc1N1CCC(N2CCN(C)CC2)CC1 [Compound 41]
IC50 (EGFR (WT)): 5120 pM
IC50 [1]: 212 pM
IC50 (EGFR (C797S/T790M/L858R)): 260 pM
Tumor volume Day 0 (PC-9 (Δ19del) xenograft): 184 mm^3
Tumor volume Day 2 (PC-9 (Δ19del) xenograft): 198 mm^3
Tumor volume Day 6 (PC-9 (Δ19del) xenograft): 54 mm^3
Tumor volume Day 9 (PC-9 (Δ19del) xenograft): 44 mm^3
Tumor volume Day 13 (PC-9 (Δ19del) xenograft): 36 mm^3
Tumor volume Day 16 (PC-9 (Δ19del) xenograft): 30 mm^3
Tumor volume Day 20 (PC-9 (Δ19del) xenograft): 37 mm^3
Tumor volume Day 23 (PC-9 (Δ19del) xenograft): 42 mm^3
